Reference: ChEMBL document CHEMBL3991601, “The target landscape of clinical kinase drugs” (Science, 2017)
One block for each compound: values may come before it. Activity calls are given as the source filed them. Cut-off read from the data, not from the text of the source, for most assays here: actives have a measured Kd and inactives only a lower limit.

Key:
[1] = target: Tyrosine-protein kinase Fer (Homo sapiens, UniProt P16591)
[2] = target: Platelet-derived growth factor receptor beta (Homo sapiens, UniProt P09619)
[3] = target: T1, Probable ATP-dependent RNA helicase DDX6 (Homo sapiens, UniProt P26196)
T1 sequence (P26196 whole entry): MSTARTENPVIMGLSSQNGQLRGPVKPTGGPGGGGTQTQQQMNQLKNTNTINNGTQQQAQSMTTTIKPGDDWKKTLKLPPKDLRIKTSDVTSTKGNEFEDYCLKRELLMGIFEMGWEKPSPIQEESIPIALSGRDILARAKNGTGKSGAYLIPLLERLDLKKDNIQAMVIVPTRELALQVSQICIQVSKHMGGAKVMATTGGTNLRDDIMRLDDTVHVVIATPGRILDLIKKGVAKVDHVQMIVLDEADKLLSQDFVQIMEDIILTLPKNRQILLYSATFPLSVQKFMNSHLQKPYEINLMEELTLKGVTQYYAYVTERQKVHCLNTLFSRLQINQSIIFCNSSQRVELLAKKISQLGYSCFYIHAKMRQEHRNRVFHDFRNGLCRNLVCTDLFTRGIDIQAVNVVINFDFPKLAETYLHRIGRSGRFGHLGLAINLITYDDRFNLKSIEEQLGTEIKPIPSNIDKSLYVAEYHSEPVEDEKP

[4] = target: Ribosomal protein S6 kinase alpha-3 (Homo sapiens, UniProt P51812)
[5] = target: Serine/threonine-protein kinase N2 (Homo sapiens, UniProt Q16513)
Ephrin type-B receptor 3 = target: T2, Ephrin type-B receptor 3 (Homo sapiens, UniProt P54753)
T2 sequence (P54753 whole entry): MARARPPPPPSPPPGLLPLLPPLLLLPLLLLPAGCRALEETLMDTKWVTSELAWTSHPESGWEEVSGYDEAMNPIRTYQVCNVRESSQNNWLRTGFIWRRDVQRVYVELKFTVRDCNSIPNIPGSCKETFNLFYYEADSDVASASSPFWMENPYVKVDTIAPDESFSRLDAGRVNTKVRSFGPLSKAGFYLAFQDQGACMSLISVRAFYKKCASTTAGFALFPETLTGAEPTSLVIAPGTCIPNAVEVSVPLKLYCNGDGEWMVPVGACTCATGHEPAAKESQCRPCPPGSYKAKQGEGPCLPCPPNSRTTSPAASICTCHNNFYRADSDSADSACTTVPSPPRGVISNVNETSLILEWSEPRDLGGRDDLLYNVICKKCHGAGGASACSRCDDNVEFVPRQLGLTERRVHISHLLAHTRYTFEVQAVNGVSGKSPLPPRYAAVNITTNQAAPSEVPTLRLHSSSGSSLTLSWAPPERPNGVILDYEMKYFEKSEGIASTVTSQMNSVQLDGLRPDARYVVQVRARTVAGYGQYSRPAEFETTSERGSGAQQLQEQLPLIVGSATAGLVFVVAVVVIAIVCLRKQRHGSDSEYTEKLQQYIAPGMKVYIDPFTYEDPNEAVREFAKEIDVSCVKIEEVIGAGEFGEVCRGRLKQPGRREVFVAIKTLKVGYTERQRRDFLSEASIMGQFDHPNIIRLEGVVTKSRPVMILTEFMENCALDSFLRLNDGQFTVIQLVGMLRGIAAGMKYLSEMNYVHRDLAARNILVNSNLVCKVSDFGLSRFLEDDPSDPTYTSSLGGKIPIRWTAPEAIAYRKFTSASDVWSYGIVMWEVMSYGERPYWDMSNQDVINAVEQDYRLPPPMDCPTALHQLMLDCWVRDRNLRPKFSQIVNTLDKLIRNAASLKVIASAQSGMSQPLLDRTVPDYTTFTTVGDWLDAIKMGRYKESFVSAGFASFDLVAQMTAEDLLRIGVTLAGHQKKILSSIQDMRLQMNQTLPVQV

[6] = target: AP2-associated protein kinase 1 (Homo sapiens, UniProt Q2M2I8)
[7] = target: Mitogen-activated protein kinase kinase kinase 1 (Homo sapiens, UniProt Q13233)
[8] = target: Serine/threonine-protein kinase SIK3 (Homo sapiens, UniProt Q9Y2K2)
[9] = target: Protein kinase C beta type (Homo sapiens, UniProt P05771)
[10] = target: Serine/threonine-protein kinase N1 (Homo sapiens, UniProt Q16512)
[11] = target: Myosin light chain kinase, smooth muscle (Homo sapiens, UniProt Q15746)
[12] = target: T3, Serine/threonine-protein kinase D3 (Homo sapiens, UniProt O94806)
T3 sequence (O94806 whole entry): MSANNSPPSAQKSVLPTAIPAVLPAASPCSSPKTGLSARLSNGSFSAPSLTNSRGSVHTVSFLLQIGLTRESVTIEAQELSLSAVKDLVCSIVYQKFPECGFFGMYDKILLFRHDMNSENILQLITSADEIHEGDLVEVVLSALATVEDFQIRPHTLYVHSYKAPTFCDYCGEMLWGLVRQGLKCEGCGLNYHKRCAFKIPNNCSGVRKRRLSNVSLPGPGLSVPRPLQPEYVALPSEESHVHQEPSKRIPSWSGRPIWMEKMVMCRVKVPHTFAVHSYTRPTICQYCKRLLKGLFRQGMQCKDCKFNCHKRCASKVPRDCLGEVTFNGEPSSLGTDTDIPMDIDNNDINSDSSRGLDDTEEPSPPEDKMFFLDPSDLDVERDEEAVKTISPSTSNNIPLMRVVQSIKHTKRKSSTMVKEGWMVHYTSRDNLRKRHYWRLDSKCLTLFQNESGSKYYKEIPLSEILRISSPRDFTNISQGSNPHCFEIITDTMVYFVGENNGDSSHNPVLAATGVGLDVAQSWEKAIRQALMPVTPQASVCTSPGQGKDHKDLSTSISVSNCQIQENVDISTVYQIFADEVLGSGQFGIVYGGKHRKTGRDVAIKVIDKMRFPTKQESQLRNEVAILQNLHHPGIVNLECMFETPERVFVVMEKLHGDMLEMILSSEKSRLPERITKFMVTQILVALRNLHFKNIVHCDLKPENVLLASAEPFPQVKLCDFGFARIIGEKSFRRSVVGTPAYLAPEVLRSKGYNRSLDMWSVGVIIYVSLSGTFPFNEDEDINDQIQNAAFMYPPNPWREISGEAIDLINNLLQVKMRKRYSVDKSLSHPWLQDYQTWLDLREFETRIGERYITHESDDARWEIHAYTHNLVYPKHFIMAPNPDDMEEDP

LIM domain kinase 1 = LIM domain kinase 1 (Homo sapiens, UniProt P53667)
Note: in the data inactive means no Kd found up to 30 µM.

Chain of Serine/threonine-protein kinase N2 (Q16513 whole entry): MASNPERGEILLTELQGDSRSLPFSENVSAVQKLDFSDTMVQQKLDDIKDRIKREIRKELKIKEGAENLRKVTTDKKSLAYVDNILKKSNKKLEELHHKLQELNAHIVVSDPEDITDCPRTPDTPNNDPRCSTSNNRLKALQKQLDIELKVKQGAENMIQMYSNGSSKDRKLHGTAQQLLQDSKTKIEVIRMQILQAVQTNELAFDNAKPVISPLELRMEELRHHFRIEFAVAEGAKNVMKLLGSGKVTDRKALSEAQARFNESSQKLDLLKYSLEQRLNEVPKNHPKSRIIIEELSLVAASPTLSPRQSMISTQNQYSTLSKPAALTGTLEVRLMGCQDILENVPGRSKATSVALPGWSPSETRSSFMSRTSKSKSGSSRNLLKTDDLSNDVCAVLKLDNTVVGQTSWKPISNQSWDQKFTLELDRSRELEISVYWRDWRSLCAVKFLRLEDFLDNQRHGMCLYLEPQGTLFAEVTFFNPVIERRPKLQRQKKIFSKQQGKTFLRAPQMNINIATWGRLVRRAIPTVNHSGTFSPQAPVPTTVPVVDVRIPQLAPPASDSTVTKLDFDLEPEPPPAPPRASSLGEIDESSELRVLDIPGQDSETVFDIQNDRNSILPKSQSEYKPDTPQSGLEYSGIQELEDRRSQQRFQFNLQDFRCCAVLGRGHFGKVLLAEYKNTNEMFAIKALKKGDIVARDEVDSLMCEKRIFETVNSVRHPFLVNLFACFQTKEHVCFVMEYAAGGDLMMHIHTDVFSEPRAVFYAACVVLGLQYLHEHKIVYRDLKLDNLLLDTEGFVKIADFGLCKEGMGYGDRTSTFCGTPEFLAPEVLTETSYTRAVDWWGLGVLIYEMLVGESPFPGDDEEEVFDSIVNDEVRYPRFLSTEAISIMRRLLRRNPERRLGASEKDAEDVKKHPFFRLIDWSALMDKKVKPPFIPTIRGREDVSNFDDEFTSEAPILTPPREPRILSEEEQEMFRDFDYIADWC
Chain of Serine/threonine-protein kinase N1 (Q16512 whole entry): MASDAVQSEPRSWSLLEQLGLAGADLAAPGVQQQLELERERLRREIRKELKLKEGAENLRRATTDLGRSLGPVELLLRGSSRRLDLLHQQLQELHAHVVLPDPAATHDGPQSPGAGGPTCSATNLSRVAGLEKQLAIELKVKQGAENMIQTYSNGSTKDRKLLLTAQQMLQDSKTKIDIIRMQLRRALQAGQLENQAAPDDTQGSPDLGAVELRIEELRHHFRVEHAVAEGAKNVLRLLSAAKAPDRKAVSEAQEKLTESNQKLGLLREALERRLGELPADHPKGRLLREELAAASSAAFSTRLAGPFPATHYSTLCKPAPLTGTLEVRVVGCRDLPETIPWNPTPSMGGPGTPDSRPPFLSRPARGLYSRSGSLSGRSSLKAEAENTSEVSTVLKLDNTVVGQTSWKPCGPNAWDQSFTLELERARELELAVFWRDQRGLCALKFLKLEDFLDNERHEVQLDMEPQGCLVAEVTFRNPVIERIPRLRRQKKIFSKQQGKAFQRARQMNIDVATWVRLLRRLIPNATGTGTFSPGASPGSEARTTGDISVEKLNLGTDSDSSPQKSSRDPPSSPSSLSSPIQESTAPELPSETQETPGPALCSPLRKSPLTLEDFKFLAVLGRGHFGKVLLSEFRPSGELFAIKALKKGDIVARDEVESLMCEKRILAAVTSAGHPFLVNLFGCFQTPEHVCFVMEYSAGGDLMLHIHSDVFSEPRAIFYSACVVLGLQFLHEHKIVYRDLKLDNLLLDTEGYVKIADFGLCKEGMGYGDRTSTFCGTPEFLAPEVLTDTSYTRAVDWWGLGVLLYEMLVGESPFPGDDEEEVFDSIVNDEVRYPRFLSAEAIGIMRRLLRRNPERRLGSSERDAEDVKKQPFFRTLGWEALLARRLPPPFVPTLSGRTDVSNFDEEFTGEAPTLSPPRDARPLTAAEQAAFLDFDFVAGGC
Chain of LIM domain kinase 1 (P53667 whole entry, the tested form may be a part): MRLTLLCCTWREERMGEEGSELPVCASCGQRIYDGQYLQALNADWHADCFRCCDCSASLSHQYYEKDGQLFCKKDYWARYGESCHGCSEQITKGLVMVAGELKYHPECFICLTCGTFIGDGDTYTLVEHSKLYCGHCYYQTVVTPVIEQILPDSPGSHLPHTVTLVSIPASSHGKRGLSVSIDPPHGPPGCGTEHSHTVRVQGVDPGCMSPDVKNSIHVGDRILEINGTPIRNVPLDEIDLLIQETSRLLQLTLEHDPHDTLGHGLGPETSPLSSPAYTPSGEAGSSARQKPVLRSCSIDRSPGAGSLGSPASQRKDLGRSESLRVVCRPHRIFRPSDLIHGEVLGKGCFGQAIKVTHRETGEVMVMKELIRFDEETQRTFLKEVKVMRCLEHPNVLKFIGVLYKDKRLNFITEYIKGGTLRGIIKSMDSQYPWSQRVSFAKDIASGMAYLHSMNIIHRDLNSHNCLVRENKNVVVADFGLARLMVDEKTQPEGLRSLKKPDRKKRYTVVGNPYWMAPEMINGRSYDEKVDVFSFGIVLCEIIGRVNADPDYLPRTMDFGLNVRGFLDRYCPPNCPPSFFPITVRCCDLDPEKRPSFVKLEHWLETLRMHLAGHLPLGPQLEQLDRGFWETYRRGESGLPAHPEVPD
Chain of Serine/threonine-protein kinase SIK3 (Q9Y2K2 whole entry): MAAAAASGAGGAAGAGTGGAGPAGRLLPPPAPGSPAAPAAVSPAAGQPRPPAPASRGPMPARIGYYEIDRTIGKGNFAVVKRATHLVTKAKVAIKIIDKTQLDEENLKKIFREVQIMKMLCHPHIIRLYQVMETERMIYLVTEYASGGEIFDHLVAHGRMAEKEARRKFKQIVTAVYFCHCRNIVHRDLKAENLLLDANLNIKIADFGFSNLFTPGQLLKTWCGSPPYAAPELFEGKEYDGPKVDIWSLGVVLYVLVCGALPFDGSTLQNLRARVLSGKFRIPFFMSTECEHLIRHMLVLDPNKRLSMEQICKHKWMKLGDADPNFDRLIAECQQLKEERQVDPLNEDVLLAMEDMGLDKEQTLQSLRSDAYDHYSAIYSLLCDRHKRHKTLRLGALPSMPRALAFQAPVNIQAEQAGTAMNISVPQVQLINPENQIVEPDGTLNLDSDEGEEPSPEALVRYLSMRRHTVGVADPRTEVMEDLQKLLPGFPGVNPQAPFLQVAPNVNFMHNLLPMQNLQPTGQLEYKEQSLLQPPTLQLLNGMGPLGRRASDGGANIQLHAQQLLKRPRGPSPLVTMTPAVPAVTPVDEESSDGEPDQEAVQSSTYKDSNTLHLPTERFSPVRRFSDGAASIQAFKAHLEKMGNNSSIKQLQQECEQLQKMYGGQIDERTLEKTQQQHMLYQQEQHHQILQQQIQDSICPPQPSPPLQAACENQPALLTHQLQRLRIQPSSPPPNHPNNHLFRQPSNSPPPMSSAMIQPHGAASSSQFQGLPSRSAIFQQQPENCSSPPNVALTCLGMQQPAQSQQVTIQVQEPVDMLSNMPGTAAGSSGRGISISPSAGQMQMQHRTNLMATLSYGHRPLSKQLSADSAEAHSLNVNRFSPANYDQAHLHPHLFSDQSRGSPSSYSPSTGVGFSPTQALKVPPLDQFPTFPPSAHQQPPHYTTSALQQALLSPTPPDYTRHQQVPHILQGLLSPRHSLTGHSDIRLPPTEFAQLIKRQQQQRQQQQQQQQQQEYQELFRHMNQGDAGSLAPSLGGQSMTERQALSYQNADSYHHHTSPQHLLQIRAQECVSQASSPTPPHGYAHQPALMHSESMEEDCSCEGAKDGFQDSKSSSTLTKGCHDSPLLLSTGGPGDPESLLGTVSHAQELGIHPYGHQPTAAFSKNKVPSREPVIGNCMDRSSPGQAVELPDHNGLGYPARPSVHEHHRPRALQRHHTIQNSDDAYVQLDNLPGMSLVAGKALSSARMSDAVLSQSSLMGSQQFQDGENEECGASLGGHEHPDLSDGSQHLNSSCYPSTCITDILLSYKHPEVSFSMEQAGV
Chain of AP2-associated protein kinase 1 (Q2M2I8 whole entry): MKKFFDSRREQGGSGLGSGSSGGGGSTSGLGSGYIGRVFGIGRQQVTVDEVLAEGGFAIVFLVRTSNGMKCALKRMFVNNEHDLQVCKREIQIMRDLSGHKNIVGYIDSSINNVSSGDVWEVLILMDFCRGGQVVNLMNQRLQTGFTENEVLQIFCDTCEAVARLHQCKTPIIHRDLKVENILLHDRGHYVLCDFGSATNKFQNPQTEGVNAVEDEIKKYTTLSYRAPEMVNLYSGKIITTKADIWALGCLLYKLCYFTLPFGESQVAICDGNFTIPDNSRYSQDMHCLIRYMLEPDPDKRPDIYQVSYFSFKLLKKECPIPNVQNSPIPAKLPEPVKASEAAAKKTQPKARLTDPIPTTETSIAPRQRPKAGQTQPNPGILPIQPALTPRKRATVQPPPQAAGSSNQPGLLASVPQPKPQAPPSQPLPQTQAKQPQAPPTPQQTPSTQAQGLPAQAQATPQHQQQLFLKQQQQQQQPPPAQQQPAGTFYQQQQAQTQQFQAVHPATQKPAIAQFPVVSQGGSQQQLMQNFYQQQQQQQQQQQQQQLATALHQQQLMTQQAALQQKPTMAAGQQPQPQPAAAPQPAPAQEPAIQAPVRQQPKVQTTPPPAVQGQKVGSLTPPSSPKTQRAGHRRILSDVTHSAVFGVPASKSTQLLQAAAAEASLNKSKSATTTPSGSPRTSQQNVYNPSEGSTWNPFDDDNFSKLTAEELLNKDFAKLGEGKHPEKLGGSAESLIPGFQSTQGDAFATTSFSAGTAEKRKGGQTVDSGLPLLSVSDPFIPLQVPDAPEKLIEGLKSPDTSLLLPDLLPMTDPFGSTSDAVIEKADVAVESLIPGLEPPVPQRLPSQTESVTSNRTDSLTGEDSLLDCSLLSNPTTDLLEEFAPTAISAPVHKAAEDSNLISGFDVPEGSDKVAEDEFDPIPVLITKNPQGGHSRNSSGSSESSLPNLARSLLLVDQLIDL

SMILES: CNC(=O)c1ccc(Nc2ncc(C(F)(F)F)c(NCc3nccnc3N(C)S(C)(=O)=O)n2)cc1 [DEFACTINIB]
Kd [1]: 1.3 µM (active)
Kd [2]: > 30 µM (inactive)
Kd [3]: > 30 µM (inactive)
Kd [4]: > 30 µM (inactive)
Kd [5]: > 30 µM (inactive)
Kd (Ephrin type-B receptor 3): > 30 µM (inactive)
Kd [6]: > 30 µM (inactive)
Kd [7]: > 30 µM (inactive)
Kd [8]: > 30 µM (inactive)
Kd [9]: > 30 µM (inactive)
Kd [10]: > 30 µM (inactive)
Kd [11]: > 30 µM (inactive)
Kd [12]: > 30 µM (inactive)
Kd (LIM domain kinase 1): > 30 µM (inactive)

SMILES: c1cc(OCCN2CCCCC2)cc(-c2n[nH]c3ccc(-c4nc[nH]n4)cc23)c1 [CC-401]
Kd [1]: > 30 µM (inactive)
Kd [2]: > 30 µM (inactive)
Kd [3]: > 30 µM (inactive)
Kd [4]: > 30 µM (inactive)
Kd [5]: > 30 µM (inactive)
Kd (Ephrin type-B receptor 3): > 30 µM (inactive)
Kd [6]: 2.61 µM (active)
Kd [7]: > 30 µM (inactive)
Kd [8]: > 30 µM (inactive)
Kd [9]: > 30 µM (inactive)
Kd [10]: > 30 µM (inactive)
Kd [11]: > 30 µM (inactive)
Kd [12]: 0.09 µM (active)
Kd (LIM domain kinase 1): > 30 µM (inactive)

Results, then the compound that gave them:

Kd [1]: > 30 µM (inactive)
Kd [2]: > 30 µM (inactive)
Kd [3]: > 30 µM (inactive)
Kd [4]: > 30 µM (inactive)
Kd [5]: > 30 µM (inactive)
Kd (Ephrin type-B receptor 3): > 30 µM (inactive)
Kd [6]: > 30 µM (inactive)
Kd [7]: > 30 µM (inactive)
Kd [8]: > 30 µM (inactive)
Kd [9]: > 30 µM (inactive)
Kd [10]: > 30 µM (inactive)
Kd [11]: > 30 µM (inactive)
Kd [12]: > 30 µM (inactive)
Kd (LIM domain kinase 1): > 30 µM (inactive)
SMILES: COc1cccc2cc(-c3nc([C@H]4CC[C@H](C(=O)O)CC4)n4ncnc(N)c34)[nH]c12 [OSI-027]

Kd [1]: > 30 µM (inactive)
Kd [2]: > 30 µM (inactive)
Kd [3]: > 30 µM (inactive)
Kd [4]: > 30 µM (inactive)
Kd [5]: > 30 µM (inactive)
Kd (Ephrin type-B receptor 3): > 30 µM (inactive)
Kd [6]: > 30 µM (inactive)
Kd [7]: > 30 µM (inactive)
Kd [8]: > 30 µM (inactive)
Kd [9]: > 30 µM (inactive)
Kd [10]: > 30 µM (inactive)
Kd [11]: > 30 µM (inactive)
Kd [12]: > 30 µM (inactive)
Kd (LIM domain kinase 1): > 30 µM (inactive)
SMILES: Cc1ccc(C(=O)Nc2ccc(Oc3cc4cnn(C)c4cc3-c3cn[nH]c3)c(F)c2)c(=O)n1-c1ccc(F)cc1 [MERESTINIB]

Kd [1]: > 30 µM (inactive)
Kd [2]: > 30 µM (inactive)
Kd [3]: > 30 µM (inactive)
Kd [4]: > 30 µM (inactive)
Kd [5]: > 30 µM (inactive)
Kd (Ephrin type-B receptor 3): > 30 µM (inactive)
Kd [6]: > 30 µM (inactive)
Kd [7]: > 30 µM (inactive)
Kd [8]: > 30 µM (inactive)
Kd [9]: > 30 µM (inactive)
Kd [10]: > 30 µM (inactive)
Kd [11]: > 30 µM (inactive)
Kd [12]: > 30 µM (inactive)
Kd (LIM domain kinase 1): > 30 µM (inactive)
SMILES: CNC(=O)c1cccc(-c2ccc3c(N4CCOC[C@@H]4C)nc(N4CCOC[C@@H]4C)nc3n2)c1 [VISTUSERTIB]
